The record followed here is patent publication JPH0770139A, “2−(モノ又はジ置換−6，7−ジヒドロ−5H−ピラゾロ[1，2−a]ピラゾリウム−6−イル)チオ−カルバペネム誘導体” (Lederle Japan Ltd, priority 1993, dated 1994).

Each structure is given as a SMILES string.

For this data set, the system named is male CrjCD(SD) mice [CrjCD(SD)系雄性マウス]. Briefly: Toxicity test (subcutaneous administration to mice, 1 week observation). The data set is classed as in vivo, mouse. The note with it: 500mg/kg, 10 male CrjCD(SD) mice, body weight 20-23 g, observation for 1 week.

With `Cc1cc(C)[n+]2n1CC(SC1=C(C(=O)[O-])N3C(=O)[C@H]([C@@H](C)O)[C@H]3[C@H]1C)C2` (stereo partly drawn) [化合物(26), (1R,5S,6S)−2−[(6,7−ジヒドロ−1,3−ジメチル−5H−ピラゾロ[1,2−a]ピラゾリウム−6−イル)チオ]−6−[(R)−1−ヒドロキシエチル]−1−メチル−カルバペン−2−エム−3−カルボキシレート], the survival without abnormality entry is “すべて異常なく生存した”.
The entry for `C[C@@H](O)[C@H]1C(=O)N2C(C(=O)[O-])=C(SC3Cn4cc(C(=O)N(C)C)c[n+]4C3)[C@H](C)[C@H]12` (stereo partly drawn) [化合物(28), (1R,5S,6S)−2−{[6,7−ジヒドロ−2−(N,N−ジメチルカルバモイル)−5H−ピラゾロ[1.2−a]ピラゾリウム−6−イル]チオ}−6−[(R)−ヒドロキシエチル]−1−メチルカルバペン−2−エム−3−カルボキシレート] is “すべて異常なく生存した”.
With `C[C@@H](O)[C@H]1C(=O)N2C(C(=O)[O-])=C(SC3Cn4cc(F)c[n+]4C3)[C@H](C)[C@H]12` (stereo partly drawn) [化合物(30), (1R,5S,6S)−2−[(6,7−ジヒドロ−2−フルオロ−5H−ピラゾロ[1.2−a]ピラゾリウム−6−イル)チオ]−6−[(R)−1−ヒドロキシエチル]−1−メチルカルバペン−2−エム−3−カルボキシレート], the survival without abnormality result is recorded as “すべて異常なく生存した”.
